± gives the standard deviation of the averaged measurements.
How the values were obtained:
[1] = compound: CCN(CC)CCCCNc1ncc2cc(-c3cc(OC)cc(OC)c3)c(NC(=O)NC(C)(C)C)nc2n1; test: surviving fraction relative to DMSO-only wells; higher = less growth inhibition; details: exposure time: 5 days
Summary of the method: (§1)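 Surviving fraction is CellTiter-Glo luminescence divided by the median of wells given DMSO only. For this, log-phase tumour cell lines went into 384-well plates at 250–500 cells per well and, 24 hours later, into five days of continuous inhibitor exposure at 0.5, 1, 5, 10, 50, 100, 500 and 1000 nM. Lines were screened three times and retained only if replicate Pearson r >0.7 and median Z' >0.3.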

VISMODEGIB = compound: CS(=O)(=O)c1ccc(C(=O)Nc2ccc(Cl)c(-c3ccccn3)c2)c(Cl)c1 [VISMODEGIB]; test: as above; details: exposure time: 5 days
Summary of the method: as §1

Test System | surviving fraction ([1]; 0.5 nM) | surviving fraction ([1]; 1 nM) | surviving fraction ([1]; 5 nM) | surviving fraction ([1]; 10 nM) | surviving fraction ([1]; 50 nM) | surviving fraction ([1]; 100 nM) | surviving fraction ([1]; 500 nM) | surviving fraction ([1]; 1000 nM) | surviving fraction (VISMODEGIB; 0.5 nM) | surviving fraction (VISMODEGIB; 1 nM) | surviving fraction (VISMODEGIB; 5 nM) | surviving fraction (VISMODEGIB; 10 nM) | surviving fraction (VISMODEGIB; 50 nM) | surviving fraction (VISMODEGIB; 100 nM) | surviving fraction (VISMODEGIB; 500 nM) | surviving fraction (VISMODEGIB; 1000 nM)
DU4475 BREAST | 0.845 ± 0.2 | 0.76 ± 0.22 | 0.743 ± 0.13 | 0.795 ± 0.19 | 0.814 ± 0.16 | 0.762 ± 0.11 | 0.702 ± 0.2 | 0.703 ± 0.18 | 0.969 ± 0.25 | 1.1 ± 0.28 | 1 ± 0.1 | 0.895 ± 0.29 | 1.1 ± 0.41 | 0.876 ± 0.17 | 0.899 ± 0.22 | 0.977 ± 0.32
H23 LUNG | 0.958 ± 0.041 | 0.998 ± 0.065 | 0.96 ± 0.053 | 1.01 ± 0.054 | 0.983 ± 0.02 | 1.02 ± 0.013 | 1.02 ± 0.029 | 1.02 ± 0.079 | 0.981 ± 0.01 | 0.997 ± 0.043 | 1.05 ± 0.03 | 1.022 ± 0.0032 | 1 ± 0.069 | 1.16 ± 0.072 | 1.01 ± 0.034 | 1.06 ± 0.067
HCC78 LUNG | 0.977 ± 0.31 | 0.856 ± 0.038 | 0.997 ± 0.23 | 0.968 ± 0.07 | 0.935 ± 0.19 | 0.917 ± 0.093 | 0.964 ± 0.097 | 0.941 ± 0.084 | 1.08 ± 0.11 | 0.941 ± 0.1 | 0.982 ± 0.14 | 1.11 ± 0.14 | 1.1 ± 0.21 | 1.32 ± 0.2 | 1.04 ± 0.13 | 0.934 ± 0.19
HCC202 BREAST | 1.05 ± 0.052 | 1.31 ± 0.39 | 1.3 ± 0.53 | 1.22 ± 0.13 | 1.27 ± 0.32 | 1.41 ± 0.073 | 1.13 ± 0.14 | 1.24 ± 0.061 | 1.1 ± 0.14 | 0.842 ± 0.13 | 1.06 ± 0.2 | 1.04 ± 0.25 | 0.945 ± 0.46 | 0.785 ± 0.2 | 0.908 ± 0.14 | 0.732 ± 0.14
HCC1395 BREAST | 0.991 ± 0.2 | 0.785 ± 0.093 | 0.968 ± 0.14 | 0.9 ± 0.021 | 0.872 ± 0.14 | 0.867 ± 0.074 | 0.826 ± 0.17 | 0.818 ± 0.18 | 0.717 ± 0.018 | 0.758 ± 0.12 | 0.818 ± 0.031 | 0.83 ± 0.12 | 0.681 ± 0.14 | 0.695 ± 0.055 | 0.676 ± 0.052 | 0.772 ± 0.076
HCC1806 BREAST | 1.11 ± 0.012 | 0.967 ± 0.1 | 1.11 ± 0.065 | 1.14 ± 0.033 | 1.11 ± 0.089 | 1.07 ± 0.043 | 1.06 ± 0.13 | 1.1 ± 0.095 | 0.902 ± 0.088 | 1.03 ± 0.043 | 1.18 ± 0.1 | 1.05 ± 0.083 | 0.932 ± 0.093 | 0.98 ± 0.1 | 0.896 ± 0.11 | 0.904 ± 0.12
HCC1954 BREAST | 1.01 ± 0.021 | 1.04 ± 0.04 | 0.945 ± 0.058 | 1.11 ± 0.051 | 1.08 ± 0.041 | 1.04 ± 0.2 | 0.829 ± 0.072 | 0.951 ± 0.11 | 0.673 ± 0.096 | 0.637 ± 0.0088 | 0.72 ± 0.015 | 0.786 ± 0.03 | 0.768 ± 0.18 | 0.6402 ± 0.0025 | 0.618 ± 0.01 | 0.546 ± 0.025
HCT15 LARGE INTESTINE | 0.875 ± 0.033 | 0.981 ± 0.02 | 0.971 ± 0.025 | 1.01 ± 0.012 | 0.963 ± 0.027 | 0.9977 ± 0.0093 | 0.987 ± 0.011 | 1.06 ± 0.047 | 0.966 ± 0.01 | 1.04 ± 0.052 | 0.998 ± 0.033 | 1.02 ± 0.072 | 0.931 ± 0.034 | 1.01 ± 0.048 | 0.9417 ± 0.0025 | 1.03 ± 0.033
HELA CERVIX | 0.979 ± 0.028 | 0.994 ± 0.034 | 0.971 ± 0.042 | 0.984 ± 0.019 | 1.03 ± 0.047 | 1.07 ± 0.065 | 1.06 ± 0.023 | 1.13 ± 0.075 | 1 ± 0.046 | 1.05 ± 0.052 | 0.9757 ± 0.0083 | 1.02 ± 0.07 | 1.0558 ± 0.001 | 1.14 ± 0.041 | 1.04 ± 0.058 | 1.15 ± 0.019
HOS BONE | 0.99 ± 0.019 | 1.01 ± 0.013 | 0.9947 ± 0.0083 | 1.03 ± 0.022 | 0.9823 ± 0.005 | 1.01 ± 0.015 | 0.9423 ± 0.0071 | 0.927 ± 0.025 | 1 ± 0.013 | 1.01 ± 0.015 | 1.012 ± 0.0066 | 1.03 ± 0.026 | 0.991 ± 0.026 | 1.03 ± 0.05 | 1.01 ± 0.029 | 1.01 ± 0.079
HOSMNG BONE | 1.02 ± 0.09 | 1 ± 0.072 | 0.994 ± 0.04 | 1.01 ± 0.062 | 0.996 ± 0.062 | 1.02 ± 0.11 | 1.02 ± 0.041 | 1.02 ± 0.065 | 0.972 ± 0.12 | 0.993 ± 0.15 | 0.942 ± 0.095 | 0.906 ± 0.067 | 0.942 ± 0.15 | 0.991 ± 0.093 | 1.02 ± 0.23 | 1.05 ± 0.16
HSSYII SYNOVIAL | 0.799 ± 0.027 | 0.9 ± 0.044 | 0.886 ± 0.029 | 0.784 ± 0.05 | 0.475 ± 0.013 | 0.402 ± 0.007 | 0.274 ± 0.005 | 0.26 ± 0.0082 | 0.894 ± 0.023 | 0.931 ± 0.038 | 0.904 ± 0.078 | 0.906 ± 0.037 | 0.812 ± 0.027 | 0.831 ± 0.03 | 0.795 ± 0.026 | 0.771 ± 0.014
HT1080 SOFT TISSUE | 1.036 ± 0.009 | 1.03 ± 0.024 | 1.02 ± 0.046 | 1 ± 0.025 | 1.03 ± 0.021 | 1.01 ± 0.021 | 1.03 ± 0.059 | 1.07 ± 0.029 | 1.021 ± 0.01 | 0.971 ± 0.028 | 1 ± 0.014 | 0.978 ± 0.03 | 0.968 ± 0.046 | 0.991 ± 0.048 | 0.962 ± 0.024 | 0.994 ± 0.06
HU09 BONE | 1 ± 0.045 | 1.01 ± 0.047 | 0.928 ± 0.028 | 1.02 ± 0.12 | 0.942 ± 0.061 | 0.921 ± 0.072 | 0.72 ± 0.011 | 0.715 ± 0.065 | 1.03 ± 0.079 | 0.973 ± 0.088 | 1.07 ± 0.14 | 1.08 ± 0.17 | 0.913 ± 0.04 | 0.898 ± 0.066 | 0.802 ± 0.036 | 0.886 ± 0.08
HUO3N1 BONE | 0.996 ± 0.074 | 0.993 ± 0.047 | 1.04 ± 0.052 | 0.999 ± 0.043 | 0.9503 ± 0.0051 | 0.906 ± 0.055 | 0.727 ± 0.04 | 0.69 ± 0.013 | 1.04 ± 0.04 | 0.976 ± 0.038 | 1.06 ± 0.061 | 1.03 ± 0.062 | 0.977 ± 0.025 | 0.962 ± 0.052 | 0.994 ± 0.03 | 0.901 ± 0.059
JIMT1 BREAST | 0.964 ± 0.028 | 0.951 ± 0.04 | 0.967 ± 0.054 | 1.01 ± 0.037 | 1.02 ± 0.011 | 1.03 ± 0.042 | 0.989 ± 0.031 | 1.02 ± 0.025 | 0.906 ± 0.044 | 0.89 ± 0.016 | 0.9112 ± 0.0064 | 0.948 ± 0.041 | 0.849 ± 0.035 | 0.972 ± 0.021 | 0.881 ± 0.053 | 0.952 ± 0.057
